Five substances from patent US20240299505A1, “COMPOSITION FOR IMPROVING, PREVENTING OR TREATING INFLAMMATORY BOWEL DISEASE COMPRISING NAMPT-DERIVED PEPTIDE AS ACTIVE INGREDIENT” (Industry-University Cooperation Foundation Hanyang …, priority 2023, published 2024) can be followed below.

Assay [1] concerns NLRP3 inflammasome signal 2. In words: NLRP3 inflammasome signal 2 in LPS-primed BMDMs activated with ATP, nigericin or DSS (ELISA, IB). Format: cell-based, mice. As to the method: (§1) FIG. 4 confirms that NAMPT-derived peptides inhibit activation of signal 1 and 2 of NLRP3. Specifically, (A-C) BMDMs were stimulated with LPS for 4 hours and pretreated with rNAMPT for 1 hour (A, B) or 18 hours (C). (A) WCLs were used for IB with αIkB-α, αP-IkB-α, or αActin. (B) FACS analysis for H2O2 (probe for 2′,7′-dichlorofluorescin diacetate) or O^2− (probe for dihydroethidium). Quantitative analysis (upper) of mean fluorescence intensities of H2O2 and O^2− and NADPH oxidase activity (lower), (C) Culture supernatants (SN) were harvested and analyzed for cytokine ELISA. (D, E) LPS-primed BMDMs were treated with rNAMPT for 1 hour and then activated with ATP for 30 minutes. (D) ELISA for IL-1β and IL-18. (E) IB in SN with αIL-1β p17, αIL-18 p18, or αCasp1 p10 and IB of WCL with αPro-IL-1β, αPro-IL-18, αPro-Casp1, or αActin. […] Data come from three independent experiments that yielded similar results. (B-D) Data are provided as mean±SD of three experiments. Significance difference compared to LPS+PBS (*p<0.05; **p<0.01; ***p<0.001);
(§2) FIG. 5 illustrates results confirming an effect of TAT-NAMPT or NAMPT peptide on inflammation. Specifically, (A) BMDMs were stimulated with LPS (100 ng/ml) for 18 hours and pretreated with rNAMPT for 1 hour. Culture supernatants were collected and analyzed for cytokine ELISA. (B) LPS-primed BMDMs were treated with rNAMPT for 1 hour and then activated with nigericin for 30 minutes and DSS for 24 hours. ELISA for IL-1B and IL-18. […] The shown data are the mean±SD of three experiments. Significant difference comparing LPS+PBS (*p<0.05; **p<0.01; ***p<0.001);
Primary bone marrow-derived macrophages (BMDMs) were harvested from mice and cultured in DMEM in the presence of M-CSF (R&D Systems, 416-ML) for 3 to 5 days. […]
TNF-α, IL-6, IL-1β and IL-18 levels were measured in cell culture supernatants and mouse serum using the BD OptEIA ELISA system (BD Pharmingen). […]

Assay [2] deals with NLRP3 inflammasome signal 1. In words: NLRP3 inflammasome signal 1 in LPS-treated BMDMs (IB, FACS ROS, cytokine ELISA). Format: cell-based, mice. As to conditions: for production of cytokines (NF-κB-induced): ELISA of supernatants; for generation of ROS: FACS. As to the method:
as §1, §2
Primary bone marrow-derived macrophages (BMDMs) were harvested from mice and cultured in DMEM in the presence of M-CSF (R&D Systems, 416-ML) for 3 to 5 days. HEK293T cells (ATCC-11268; American Type Culture Collection) were cultured in DMEM (Gibco) containing 10% FBS (Gibco), nonessential amino acids, sodium pyruvate, streptomycin (100 μg/mL) and penicillin G (100 IU/mL).
Polypeptides were separated by SDS-polyacrylamide gel electrophoresis and then transferred to a PVDF membrane for immunoblotting (IB) (Bio-Rad, Hercules, CA, USA). For immunodetection, specific antibodies were required, and Chemiluminescence (ECL; Millipore, MA, USA) was used to visualize an antibody bound to a target. In addition, a Vilber chemiluminescence analyzer was used to detect the antibody (Fusion SL3; Vilber Lourmat, Colégien, France).
Flow cytometry was used to quantify intracellular ROS levels. The cells were cultured in a serum-free medium and stained with 2 μM dihydroethidium (DHE for O^2−; Calbiochem) or 1 μM 2′,7′-dichlorodihydrofluorescein diacetate (H2DCFDA for H2O2; Calbiochem) as a redox-sensitive dye. mAbs were incubated at 4° C. for 20 to 30 minutes to determine cell surface protein expression, and cells were fixed using a Cytofix/Cytoperm Solution (BD Biosciences), and in a specific case, mAb incubation was performed to detect intracellular proteins. The used mAb clones were the following: ITGA6 (GoH3, BD Pharmingen™) and ITGB1 (HMβ1-1, BD Pharmingen™). The cells were washed completely and quickly with pulse spinning before being analyzed in a FACS Calibur (BD Biosciences, San Jose, CA, USA). CellQuest software (BD Biosciences) was used to visualize the data, and FlowJo software was used to analyze the data (Tree Star, Ash-land, OR, USA).
TNF-α, IL-6, IL-1β and IL-18 levels were measured in cell culture supernatants and mouse serum using the BD OptEIA ELISA system (BD Pharmingen). All experiments were performed according to the manufacturer's protocol.
To determine the effect of NAMPT peptides related to signal 1 for the NLRP3 inflammasome in macrophages, LPS-treated BMDMs were exposed to different concentrations of NAMPT peptides (aa 57-65, aa 52-56, or aa 52-65). […] Thus, the TAT-NAMPT peptides were less likely to inhibit the interaction of eNAMPT with TLR4 or CYBB.
(In general: In an ELISA, binding on a coated surface is turned into a signal by an enzyme label.)

In another assay the target is T1, CYBB (Homo sapiens, UniProt P04839).
T1 sequence (P04839 1-570): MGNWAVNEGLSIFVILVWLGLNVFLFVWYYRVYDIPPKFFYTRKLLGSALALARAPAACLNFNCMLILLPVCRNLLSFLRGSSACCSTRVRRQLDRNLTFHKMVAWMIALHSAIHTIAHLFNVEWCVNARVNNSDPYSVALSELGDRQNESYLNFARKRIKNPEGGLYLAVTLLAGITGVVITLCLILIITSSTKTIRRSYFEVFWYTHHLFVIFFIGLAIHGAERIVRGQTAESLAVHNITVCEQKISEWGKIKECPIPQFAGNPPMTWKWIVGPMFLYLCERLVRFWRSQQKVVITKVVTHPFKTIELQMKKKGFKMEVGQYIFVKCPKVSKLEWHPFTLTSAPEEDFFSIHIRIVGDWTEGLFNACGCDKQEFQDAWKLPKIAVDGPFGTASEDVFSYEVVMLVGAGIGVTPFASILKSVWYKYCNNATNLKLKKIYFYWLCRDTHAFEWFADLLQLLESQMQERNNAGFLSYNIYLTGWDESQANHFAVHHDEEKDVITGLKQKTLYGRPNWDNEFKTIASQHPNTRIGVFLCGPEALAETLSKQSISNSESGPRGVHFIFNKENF
In words: Fluorescence binding titration of labeled CYBB with unlabeled NAMPT. As to conditions: fluorescently labeled CYBB titrated with unlabeled NAMPT, curve fit; read-out: Kd of NAMPT-CYBB interaction.

A further assay concerns the target TLR4 (Homo sapiens, UniProt O00206). Nature of the assay: Fluorescence binding titration of labeled TLR4 with unlabeled NAMPT. The settings on record: fluorescently labeled TLR4 titrated with unlabeled NAMPT, curve fit; read-out: Kd of NAMPT-TLR4 interaction.
For another assay, the system named is NAMPT-TLR4 binding. Nature of the assay: Co-immunoprecipitation of Myc-NAMPT with Flag-TLR4 in 293T cells treated with TAT-NAMPT peptides. Format: cell-based. The settings on record: Myc-NAMPT and Flag-TLR4, peptide 6 hours, 5 μM or 1, 5, 10 μM. As to the method: (§3) FIG. 3 illustrates experimental design and results for identifying an essential region of NAMPT for binding to TLR4 and CYBB. Specifically, (A) Schematic diagram (upper) of the structures of NAMPT and TLR4. 293T cells were transfected with GST-NAMPT or its mutants and Flag-TLR4. GST pulldown was performed with 293T cells and then IB was performed using αFlag. WCLs were used for IB using αGST, αFlag, or αActin (lower, left in A). 293T cells were transfected with Flag-TLR4 or its mutants and Myc-NAMPT. The 293T cells were used for IP with αMyc, followed by IB with αFlag. WCLs were used for IB using αMyc, αFlag or αActin (lower, right in A). (B) 293T cells were transfected with Myc-NAMPT and Flag-TLR4 and treated with NAMPT peptide or its mutants for 6 hours (5 μM, left; 1, 5, 10 μM, right). The 293T cells were used for IP with αFlag, followed by IB with αMyc. WCLs were used for IB using αMyc, αFlag, or αActin. (C) Schematic diagram (upper) of the structures of CYBB. 293T cells were transfected with GST-NAMPT or its mutants and V5-CYBB (lower, left in C). The 293T cells were transfected with GST-CYBB or its mutants and Myc-NAMPT (lower, right in C). The 293T cells were subjected to GST pull-down, followed by IB with αV5 or αMyc. WCLs were used for IB using αGST, αMyc, a V5 or αActin. […]

In another assay the target is T2, NAMPT-CYBB binding (Homo sapiens, UniProt P04839).
T2 construct: The full-length (FL) CYBB and mutant plasmids were constructed as follows; expressed in transfected cells; host or cells: HEK293T (293T)
T2 sequence (P04839 1-570): T1 sequence (P04839 1-570)
Nature of the assay: Co-immunoprecipitation of Myc-NAMPT with V5-CYBB in 293T cells treated with TAT-NAMPT peptides. The settings on record: Myc-NAMPT and V5-CYBB, peptide 6 hours, 5 μM or 1, 5, 10 μM. The format is cell-based. As to the method: as §3

Sequence of TLR4 (O00206 24-839, species assumed): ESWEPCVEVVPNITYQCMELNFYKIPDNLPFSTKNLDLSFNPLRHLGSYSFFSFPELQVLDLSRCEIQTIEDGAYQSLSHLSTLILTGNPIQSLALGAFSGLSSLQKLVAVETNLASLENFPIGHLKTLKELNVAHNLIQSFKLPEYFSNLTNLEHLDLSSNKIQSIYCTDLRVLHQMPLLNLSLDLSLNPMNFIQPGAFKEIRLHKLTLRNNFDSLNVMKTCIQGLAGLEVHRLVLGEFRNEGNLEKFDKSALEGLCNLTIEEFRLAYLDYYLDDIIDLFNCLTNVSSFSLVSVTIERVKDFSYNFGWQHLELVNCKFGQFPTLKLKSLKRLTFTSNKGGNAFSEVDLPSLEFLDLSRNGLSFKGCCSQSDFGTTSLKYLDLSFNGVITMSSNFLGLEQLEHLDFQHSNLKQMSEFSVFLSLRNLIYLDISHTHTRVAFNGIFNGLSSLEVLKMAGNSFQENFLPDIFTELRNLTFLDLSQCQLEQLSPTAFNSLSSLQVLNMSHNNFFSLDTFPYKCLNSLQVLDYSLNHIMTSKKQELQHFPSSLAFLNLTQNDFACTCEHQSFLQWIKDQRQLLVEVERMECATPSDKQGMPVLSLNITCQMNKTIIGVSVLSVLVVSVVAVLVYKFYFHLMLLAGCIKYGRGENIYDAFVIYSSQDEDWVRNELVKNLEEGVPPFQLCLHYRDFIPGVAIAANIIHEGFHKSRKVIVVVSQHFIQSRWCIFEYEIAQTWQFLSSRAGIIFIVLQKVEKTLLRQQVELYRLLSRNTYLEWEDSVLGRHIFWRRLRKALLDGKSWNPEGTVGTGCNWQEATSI

On to “NAMPT peptides aa 52-65: peptide of amino acids 52 to 65 of NAMPT (SEQ ID NO: 1), binds TLR4 and CYBB (VKYEETVFYGLQYI; listed as Homo sapiens)”, for which, in assay [1] (FIG. 4D lower, FIG. 4E right), the “action of eNAMPT on NLRP3 inflammasome signal 2” value is given as “specifically inhibited the action of eNAMPT”. The “ATP-induced caspase-1 cleavage” value in assay [1] (LPS-primed BMDMs, ATP 30 minutes) is recorded as “efficiently inhibited”. For the same substance, in assay [1] (LPS-primed BMDMs, ATP, nigericin or DSS stimulation), the “maturation of IL-1β and IL-18” value is reported as “efficiently inhibited”. For the same substance, in assay [2], the “production of cytokines (NF-κB-induced)” value is reported as “markedly inhibited” and the “generation of ROS” value was “markedly inhibited”.
As for “NAMPT peptides aa 52-56: peptide of amino acids 52 to 56 of NAMPT (SEQ ID NO: 1), binds CYBB (VKYEE; listed as Homo sapiens)”, in assay [2], the “activation of NF-κB” value is on record as “partially inhibited”, the “production of cytokines (NF-κB-induced)” value is on record as “partially inhibited” and the “generation of ROS” value is recorded as “partially inhibited”.
The term Kd denotes a measure of binding affinity in units of concentration. Consider “Nicotinamide phosphoribosyl transferase [NAMPT]”, for which the Kd with CYBB amounted to 896 nM; in the assay with TLR4, 219 nM.
Consider “TAT-NAMPT (aa 40-69) (GRKKRRQRRRPQREKKTENSKLRKVKYEETVFYGLQYILNKY)”, for which the “binding of NAMPT to TLR4 (IP/IB)” value in the assay with NAMPT-TLR4 binding is given as “reduced the binding of NAMPT to TLR4”. Also, the “binding of NAMPT to CYBB (IP/IB)” value in the assay with NAMPT-CYBB binding is given as “bound to CYBB”.
Regarding “NAMPT peptides aa 57-65: peptide of amino acids 57 to 65 of NAMPT (SEQ ID NO: 1), binds TLR4 (TVFYGLQYI; listed as Homo sapiens)”, in assay [2], the “activation of NF-κB” value is given as “partially inhibited”, the “production of cytokines (NF-κB-induced)” value is “partially inhibited” and the “generation of ROS” value is reported as “partially inhibited”.
